Test results: patent publication US20150313217A1, “CONTROL AGENT FOR PLANT PEST AND/OR PLANT DISEASE” (RIKEN, priority 2012, published 2015)

Assay: Aggregation and precipitation of polyglycerin fatty acid ester on storage with oxoacid or organic solvent (Example 17)
Assay type: physicochemical
Set-up: key: 1: equivalent aggregation and precipitation to those of the reference were observed; 2: the aggregation and precipitation were approximately ¾ of those of the reference; 3: the aggregation and precipitation were approximately ½ of those of the reference; 4: the aggregation and precipitation were approximately ¼ of those of the reference; 5: no aggregate and precipitate were observed
Conditions: cool dark place, two months, visual
Protocol: A polyglycerin fatty acid ester and phosphoric acid were weighed using an electronic balance and put into a cylindrical plastic container (diameter of […]×height of 77 mm, volume 25 ml) in such a manner that the mixing ratio was 90:10 (mass ratio) (10 mass % of phosphoric acid (approximately 11.1 parts by mass of phosphoric acid per 100 parts by mass of the polyglycerin fatty acid) was added) or 99.9:0.1 (mass ratio) (0.1 mass % of phosphoric acid (approximately 0.1 parts by mass of phosphoric acid per 100 parts by mass of the polyglycerin fatty acid) was added). The total amount was adjusted to 20 ml. Then, the preparation was made uniform by sufficient stirring and mixing. The resultant was left standing in a cool dark place. Two months later, the degree of aggregation and precipitation of the polyglycerin fatty acid ester was visually determined based on the following determination criteria. […] Further, as a reference, a test was conducted by the same method as above using only a polyglycerin fatty acid ester to which no oxoacid or organic solvent was added. Index 1: equivalent aggregation and precipitation to those of the reference were observed. Index 2: the aggregation and precipitation were approximately ¾ of those of the reference.

[1] = adding ratio 0.1 % to polyglycerin fatty acid ester
[2] = adding ratio 10.0 % to polyglycerin fatty acid ester

Compound | Result (index): degree of aggregation and precipitation of the polyglycerin fatty acid ester [1] | Result (index): degree of aggregation and precipitation of the polyglycerin fatty acid ester [2]
CC(=O)O [acetic acid] | 4 | 5
CCO [ethyl alcohol] | 4 | 4
CC(O)C(=O)O (stereo not shown) [lactic acid] | 4 | 5
CCCCCC [normal hexane] | 3 | 4
O=P(O)(O)O [phosphoric acid] | 4 | 5
